Consider five molecules from US10532053B2, “Histone deacetylase inhibitor, and preparation method and use thereof” (GUANGDONG ZHONGSHENG PHARMACEUTICAL CO., LTD, priority 2015, dated 2020).

Where two headings read alike, the source gives them in different places.

The subject of data set [1] is B-cell lymphoma Ramos. Nature of the data set: Cell proliferative activity (MTT / cck-8). Type of data set: cell-based. The following applies: Homo sapiens, read-out: Half-Inhibitory Concentration IC50 Ramos. How it is done:
(§1) Tumor cell line A375: human melanoma cell; H460: lung adenocarcinoma cell; Hela: human cervical cancer cell; HepG2: human liver cancer cell; and SKOV-3: human ovarian cancer cell, were all purchased from ATCC and cultured to logarithmic phase according to the cultivation protocol recommended by ATCC. The cells in the logarithmic phase were plated onto a 96-well plate at 2000-3000 cells/well; in the case of adherent cells, the cells should be adherent to the wall. […] After that, the cell proliferative activity was determined by MTT assay for the tumor cells representing the solid tumor model and by cck-8 assay for the tumor cells representing the hematologic tumor model.

In data set [2] the test system is Human cervical cancer cell Hela. Kind of data set: Cell proliferative activity (MTT / cck-8). The class given is cell-based. How it is done:
as §1

Data set [3] concerns Human liver cancer cell HepG2. Nature of the data set: Cell proliferative activity (MTT / cck-8). The class given is cell-based. The procedure: as §1
In data set [4] the test system is Human lung cancer cell H460. Nature of the data set: Cell proliferative activity (MTT / cck-8). Type of data set: cell-based. The procedure:
as §1

The subject of data set [5] is Human ovarian cancer cell SKOV-3. Kind of data set: Cell proliferative activity (MTT / cck-8). Type of data set: cell-based. The procedure: as §1
The subject of data set [6] is Leukemia K562. Kind of data set: Cell proliferative activity (MTT / cck-8). Type of data set: cell-based. The following applies: Homo sapiens, read-out: Half-Inhibitory Concentration IC50 K562. The procedure: as §1
Data set [7] deals with Leukemia MV4-11. Kind of data set: Cell proliferative activity (MTT / cck-8). Type of data set: cell-based. The following applies: Homo sapiens, read-out: Half-Inhibitory Concentration IC50 MV4-11. The procedure:
as §1

For data set [8], the system named is Multiple myeloma RPMI8226. Nature of the data set: Cell proliferative activity (MTT / cck-8). Type of data set: cell-based. The following applies: Homo sapiens, RPMI-8226, read-out: Half-Inhibitory Concentration IC50 RPMI8226. The procedure: as §1
In data set [9] the test system is Multiple myeloma U266. Kind of data set: Cell proliferative activity (MTT / cck-8). The class given is cell-based. The following applies: Homo sapiens, U-266, read-out: Half-Inhibitory Concentration IC50 U266. How it is done: as §1
Data set [10] has as its system Ovarian cancer A2780s. Kind of data set: Cell proliferative activity (MTT / cck-8). The class given is cell-based. The following applies: Homo sapiens, read-out: Half-Inhibitory Concentration IC50 A2780s.
For data set [11], the system named is Breast cancer SKBR3. Nature of the data set: Cell proliferative activity (MTT / cck-8). Type of data set: cell-based. The following applies: Homo sapiens, SK-BR-3, read-out: Half-Inhibitory Concentration IC50 SKBR3.
Data set [12] relates to Lung cancer A549. Kind of data set: Cell proliferative activity (MTT / cck-8). Type of data set: cell-based. The following applies: Homo sapiens, read-out: Half-Inhibitory Concentration IC50 A549.
The subject of data set [13] is Colon cancer HCT116. Kind of data set: Cell proliferative activity (MTT / cck-8). Type of data set: cell-based. The following applies: Homo sapiens, HCT-116, read-out: Half-Inhibitory Concentration IC50 HCT116.
The test system of data set [14] is Colon cancer HT29. Nature of the data set: Cell proliferative activity (MTT / cck-8). The class given is cell-based. The following applies: Homo sapiens, HT-29, read-out: Half-Inhibitory Concentration IC50 HT29.
Data set [15] relates to HBL-1 cells. Kind of data set: Therapeutic effect on the B-cell lymphoma HBL-1 subcutaneous tumor model. Type of data set: in vivo, NOD/SCID mice. The following applies: HBL-1 model, 40 mg/kg intragastrically once every other day, 9 times; vs solvent group.
The subject of data set [16] is Ramos cells. Nature of the data set: Therapeutic effect on the B-cell lymphoma Ramos subcutaneous tumor model. The class given is in vivo, NOD/SCID mice. The following applies: 40 mg/kg intragastrically once every other day, 6 times, vs solvent group.
The target in data set [17] is HDAC10 (Homo sapiens, UniProt Q969S8). The following applies: read-out: IC50 HDAC10; Table 4, Class IIb.
Sequence of HDAC10 (Q969S8 whole entry): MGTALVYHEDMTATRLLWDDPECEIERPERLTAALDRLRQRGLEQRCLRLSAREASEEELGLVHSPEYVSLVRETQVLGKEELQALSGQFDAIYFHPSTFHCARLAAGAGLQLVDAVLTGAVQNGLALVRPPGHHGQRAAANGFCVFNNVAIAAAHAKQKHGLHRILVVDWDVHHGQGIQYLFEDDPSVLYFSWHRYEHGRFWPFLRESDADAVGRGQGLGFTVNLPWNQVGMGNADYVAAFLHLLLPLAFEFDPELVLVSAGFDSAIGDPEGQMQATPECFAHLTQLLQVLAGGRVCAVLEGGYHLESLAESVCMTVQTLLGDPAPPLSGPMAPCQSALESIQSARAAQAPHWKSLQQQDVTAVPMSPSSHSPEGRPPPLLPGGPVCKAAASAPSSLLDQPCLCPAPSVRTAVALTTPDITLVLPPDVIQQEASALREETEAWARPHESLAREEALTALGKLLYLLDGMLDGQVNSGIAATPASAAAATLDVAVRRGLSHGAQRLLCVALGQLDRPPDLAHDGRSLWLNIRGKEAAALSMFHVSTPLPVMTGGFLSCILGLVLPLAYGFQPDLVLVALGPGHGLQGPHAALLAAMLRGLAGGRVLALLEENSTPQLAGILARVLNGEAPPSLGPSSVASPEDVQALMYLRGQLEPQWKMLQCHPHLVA
Protocol: (§2) The HDAC inhibitory activity was determined by fluorescence-coupled acetylated peptide substrate assay (Lys-Ac-AMC). HDAC1 protein was purchased from BPS Bioscience, and the reaction buffer system was a modified tris(hydroxymethyl)aminomethane buffer (pH 7.0). The small molecule compounds of the present invention were prepared by being dissolved in 100% DMSO. HDAC was prepared in a buffer at a certain concentration as an enzyme solution; trypsin and fluorescent group 4-amino-7-coumarin coupled-acetylated peptide (Ac-peptide) substrate were prepared in a buffer at a certain concentration as a substrate solution. The compounds were added into the reaction wells in a 384-well plate at a designed concentration of 10 μM, 1 μM, 0.5 μM, 0.1 μM, 0.05 μM, 0.01 μM, 0.005 μM, 0.001 μM, and 0.00005 μM, respectively, and then 15 μl of the HDAC solution was added into the reaction wells (15 μl of blank buffer to the control well). […] The results were analyzed by GraphPad Prism software and IC50 values were calculated according to the formula: Y=Background Data+(Top Data−Background Data)/(1+10^((Log IC50−X) a curve slope)), where Y: the inhibition rate (%) and X: the concentration of the compound.
For data set [18] the following is noted: cited from earlier work.
For data set [19], the target named is T1, HDAC1 (Homo sapiens, UniProt Q13547).
T1 construct: purchased BPS Bioscience
T1 sequence (Q13547 whole entry): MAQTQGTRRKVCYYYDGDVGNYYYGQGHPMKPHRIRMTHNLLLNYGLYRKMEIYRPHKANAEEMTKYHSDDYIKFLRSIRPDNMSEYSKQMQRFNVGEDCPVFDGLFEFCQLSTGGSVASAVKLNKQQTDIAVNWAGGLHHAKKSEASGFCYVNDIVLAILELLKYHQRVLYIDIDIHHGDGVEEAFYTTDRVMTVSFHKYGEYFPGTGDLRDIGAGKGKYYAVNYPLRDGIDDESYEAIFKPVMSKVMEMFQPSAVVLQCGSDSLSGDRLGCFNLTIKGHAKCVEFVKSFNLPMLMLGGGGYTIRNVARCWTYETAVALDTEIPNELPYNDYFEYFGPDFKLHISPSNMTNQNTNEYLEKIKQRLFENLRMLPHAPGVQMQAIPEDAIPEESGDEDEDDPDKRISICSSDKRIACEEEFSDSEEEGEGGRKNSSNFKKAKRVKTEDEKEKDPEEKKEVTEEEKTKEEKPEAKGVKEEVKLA
Nature of the data set: HDAC inhibitory activity, fluorescence-coupled acetylated peptide substrate assay (Lys-Ac-AMC). The class given is biochemical. The following applies: Table 2.
Protocol: as §2

For data set [20], the target named is T2, HDAC6 (Homo sapiens, UniProt Q9UBN7).
T2 sequence (Q9UBN7 1-1215): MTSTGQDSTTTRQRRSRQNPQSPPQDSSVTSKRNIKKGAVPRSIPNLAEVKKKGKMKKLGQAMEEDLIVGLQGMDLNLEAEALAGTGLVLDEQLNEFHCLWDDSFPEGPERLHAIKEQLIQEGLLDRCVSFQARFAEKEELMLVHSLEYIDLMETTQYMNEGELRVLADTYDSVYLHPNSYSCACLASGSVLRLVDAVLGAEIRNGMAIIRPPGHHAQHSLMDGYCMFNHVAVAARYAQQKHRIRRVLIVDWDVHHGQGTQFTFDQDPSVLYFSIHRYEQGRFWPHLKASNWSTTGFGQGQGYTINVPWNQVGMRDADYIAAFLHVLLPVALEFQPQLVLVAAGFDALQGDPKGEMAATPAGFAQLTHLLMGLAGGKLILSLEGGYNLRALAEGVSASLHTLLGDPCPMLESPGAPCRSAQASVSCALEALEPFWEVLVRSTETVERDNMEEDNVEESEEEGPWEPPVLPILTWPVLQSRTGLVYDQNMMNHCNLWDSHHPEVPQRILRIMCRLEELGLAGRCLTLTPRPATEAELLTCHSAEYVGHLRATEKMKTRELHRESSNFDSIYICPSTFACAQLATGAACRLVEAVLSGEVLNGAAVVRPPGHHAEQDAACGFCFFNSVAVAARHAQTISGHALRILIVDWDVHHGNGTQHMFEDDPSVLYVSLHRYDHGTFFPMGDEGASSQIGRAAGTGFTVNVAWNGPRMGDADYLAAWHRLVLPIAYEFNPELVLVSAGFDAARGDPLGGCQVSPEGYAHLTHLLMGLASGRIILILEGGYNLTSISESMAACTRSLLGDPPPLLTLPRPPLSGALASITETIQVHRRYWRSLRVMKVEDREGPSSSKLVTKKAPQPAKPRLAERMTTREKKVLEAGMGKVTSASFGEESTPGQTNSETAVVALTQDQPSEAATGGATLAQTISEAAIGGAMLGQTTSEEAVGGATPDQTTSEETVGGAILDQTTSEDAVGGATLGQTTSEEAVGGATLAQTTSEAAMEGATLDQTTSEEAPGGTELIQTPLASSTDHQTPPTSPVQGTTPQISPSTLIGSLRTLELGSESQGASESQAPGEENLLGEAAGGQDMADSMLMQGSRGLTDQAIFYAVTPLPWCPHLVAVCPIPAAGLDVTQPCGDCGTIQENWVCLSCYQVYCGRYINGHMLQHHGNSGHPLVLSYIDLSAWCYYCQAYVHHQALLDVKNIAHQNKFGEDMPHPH
Kind of data set: HDAC inhibitory activity, fluorescence-coupled acetylated peptide substrate assay. The following applies: Table 2. The class given is biochemical.
Protocol: as §2

Data set [21] concerns Human melanoma A375. Kind of data set: Cell proliferative activity (MTT / cck-8). The class given is cell-based. The following applies: A-375, incubated for 96 hours, read-out: Half-Inhibitory Concentration IC50 Human melanoma A375. How it is done: as §1
The test system of data set [22] is HCT116 cells. Kind of data set: Therapeutic effect on the colon cancer HCT116 model (intravenous).
For data set [23], the target named is T3, HDAC8 (Homo sapiens, UniProt Q9BY41).
T3 sequence (Q9BY41 1-377): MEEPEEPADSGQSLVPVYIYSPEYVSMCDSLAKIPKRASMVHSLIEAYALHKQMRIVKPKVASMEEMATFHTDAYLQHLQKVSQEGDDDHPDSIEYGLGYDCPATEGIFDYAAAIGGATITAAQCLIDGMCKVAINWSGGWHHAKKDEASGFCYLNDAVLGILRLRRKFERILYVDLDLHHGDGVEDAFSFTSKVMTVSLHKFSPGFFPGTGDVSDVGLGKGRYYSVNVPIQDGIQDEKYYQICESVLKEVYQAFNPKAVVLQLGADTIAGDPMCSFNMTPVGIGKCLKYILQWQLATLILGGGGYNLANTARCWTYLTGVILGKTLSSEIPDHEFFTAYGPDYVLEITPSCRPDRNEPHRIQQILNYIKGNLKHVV
Kind of data set: HDAC inhibitory activity, fluorescence-coupled acetylated peptide substrate assay. The following applies: IC50 HDAC8, Table 2.

In data set [24] the test system is acetylation level of HDAC substrate (Ac-α-tubulin, Ac-H3). Nature of the data set: Western blot assay for detecting the level of acetylated proteins. The class given is cell-based. The following applies: HCT116 cells (FIG. 3) or MV4-11 cells (FIG. 4). The procedure:
The compounds or the positive control compound were added into each group of cells already adherent to the walls (2×10^6 HCT116 cells or 5×10^6 MV4-11 cells) at a designed concentration. After treatment for 4 hours, trypsin was added for digestion, followed by collecting the cells. After washing with cold PBS twice, the cells were lysed by adding RIPA lysis solution (which was purchased from Beyotime, Art. No.: P0013B, adding 1 mM PMSF before use), allowing for lysis on ice for 30 minutes while vortexing at intervals. The lysate was subjected to ultrasonic treatment on an ice bath (ultrasonicated for 3 seconds and repeated 5 times for each group at an interval of 10 seconds). The supernatant was collected by centrifugation at 12,000 g for 20 min at 4° C. and then mixed the SDS-PAGE loading buffer (purchased from Beyotime, Art. No.: P0015F). The mixture was heated in boiling water for 5 minutes to obtain a protein sample. The protein concentration of the sample was quantified by BCA method. 20 […] total protein from each group was subjected to 15% SDS-PAGE electrophoresis, and 5μl of a pre-stained protein marker (purchased from Thermo, Art. No.: 26616) was loaded to an additional selective lane in order to compare protein molecular weights as well as to detect the transmembrane result. When the bromophenol blue bands ran close to the bottom of the gel, the electrophoresis was terminated and the proteins on the gel were transferred to a PVDF membrane at a pore size of 0.22 μm. After 1.5 hours of transmembrane at a constant current of 200 mA, the PVDF membrane was removed and blocked in 5% skimmed milk for 1 hour. After completion of blocking, the membrane was incubated with the primary antibody (Ac-H3 antibody was purchased from Santa Cruz, Art. No.: sc-56616; Ac-α-tubulin antibody was purchased from Santa Cruz, Art. No.: sc-23950) overnight at 4° C. and then washed with TBS/T for 10 minutes for 3 times. The membrane was incubated with the horseradish peroxidase-coupled secondary antibody at room temperature for 1 hour, and then washed with TBS/T for 10 minutes for 3 times. After washing with TBS for 5 minutes, the membrane was exposed and developed by using a film in the darkroom. The detected GAPDH protein was an internal reference protein (GAPDH antibody was purchased from ZSGB-Bio, Art. No.: TA-08).
(Immunoblotting shows a protein as a band on a membrane.)

Data set [25] has as its system A2780s cells. The following applies: A2780s model, 100 mg/kg intragastrically once every other day, 16 times.

Turning to `O=C(CCCCCCNC(=O)c1cnc(N(c2ccccc2)c2ccccc2)nc1)NO` [ACY-1215, reference compound], the IC50 in [1] is greater than 5 µM; in data set [2] (Cervical cancer, Table 5, read-out: Half-Inhibitory Concentration IC50 Hela) it was greater than 5 µM; in data set [3] (Liver cancer, Table 5, read-out: Half-Inhibitory Concentration IC50 HepG2) it was greater than 5 µM; in [4] (NCI-H460, Lung cancer, Table 5, read-out: Half-Inhibitory Concentration IC50 H460), greater than 5 µM; in [5] (SK-OV-3, Ovarian cancer, Table 5, read-out: Half-Inhibitory Concentration IC50 SKOV-3), greater than 5 µM; in data set [6], greater than 5 µM. Besides, the IC50 in data set [7] was greater than 5 µM; in [8], 1.47 ± 0.31 µM; in data set [9] it was greater than 5 µM; in [10], greater than 5 µM; in data set [11], greater than 5 µM; in [12] it was greater than 5 µM. The IC50 in data set [13] was greater than 5 µM; in [14] it was greater than 5 µM; in [17] it was 0.194 ± 0.054 µM. Also, the tumor inhibitory rate in data set [15] was 26.75%; in data set [16], “no inhibitory effects of tumor growth”.

For the molecule `Nc1ccccc1NC(=O)c1ccc(CNC(=O)OCc2cccnc2)cc1` [Entinostat], in data set [18] (human, clinical trials), the “elimination half-life in human body” value was roughly 100 h.

Consider `COc1ccc(N(C)c2nc(C)nc3ccccc23)cc1OCC(=O)NO` [III-1, N-hydroxy-2-(2-methoxy-5-(methyl(2-methyl-4-quinazolinyl)amino)phenoxy) acetamide], for which the IC50 in data set [19] is greater than 1 µM; in data set [20], greater than 1 µM; in data set [2] (incubated for 96 hours, read-out: Half-Inhibitory Concentration IC50 Human cervical cancer cell Hela), less than 0.01 µM; in [3] (incubated for 96 hours, read-out: Half-Inhibitory Concentration IC50 Human liver cancer cell HepG2), less than 0.01 µM; in [4] (NCI-H460, incubated for 96 hours, read-out: Half-Inhibitory Concentration IC50 Human lung cancer cell H460), less than 0.01 µM; in data set [21], 0.01 to 0.1 µM. For the same molecule, the IC50 in data set [5] (SK-OV-3, incubated for 96 hours, read-out: Half-Inhibitory Concentration IC50 Human ovarian cancer cell SKOV-3) was less than 0.01 µM; in data set [23], greater than 1 µM. Also, in data set [22] (10 mg/kg intravenously once every other day, 9 times, vs blank control, P<0.01), the “survival time of mice” value is recorded as “significantly prolonged the survival time of mice”. Moreover, the “effect prolonging the survival time compared with positive control group” value in [22] (10 mg/kg intravenously, SAHA 50 mg/kg intraperitoneally) is reported as “superior to that of the positive control group”.

Regarding `O=C(CCCCCCC(=O)Nc1ccccc1)NO` [SAHA, reference compound], in [24], the “acetylation of H3 (Ac-H3)” value is “up-regulate acetylation of tubulin and H3”; the “acetylation of α-tubulin” value was “up-regulate acetylation of tubulin and H3”. Further, the “death of mice during the experiment” value in [25] is on record as “one mouse died”. Moreover, in [18] (clinical data), the toxic side effects entry is “thrombosis and neurotoxicity”.

In the case of FK228, in [18] (clinical data), the “incidence of medication-related adverse reactions above Phase III” value is on record as “up to 66%” and the toxic side effects result is given as “cardiotoxicity”.
